Source: the NIST ThermoML archive (doi:10.1021/je200682t)
± gives the expanded uncertainty stated by the source.

Assay: relative permittivity at zero frequency (dimensionless)
Conditions: 243.15 K; 101.33 kPa; Liquid; Parallel plate capacitor

Row | relative permittivity at zero frequency | SMILES
1 | 17.96 ± 0.02 | O=C1CCC1 [cyclobutanone]
2 | 15.66 ± 0.04 | O=C1CCCC1 [cyclopentanone]
3 | 19.75 ± 0.02 | O=C1CCCCC1 [cyclohexanone]

Same assay, conditions: 245.65 K; 101.33 kPa; Liquid; Parallel plate capacitor

Row | relative permittivity at zero frequency | SMILES
4 | 17.81 ± 0.02 | O=C1CCC1 [cyclobutanone]
5 | 15.35 ± 0.02 | O=C1CCCCCC1 [cycloheptanone]
6 | 15.56 ± 0.04 | O=C1CCCC1 [cyclopentanone]
7 | 19.54 ± 0.02 | O=C1CCCCC1 [cyclohexanone]

Same assay, conditions: 248.15 K; 101.33 kPa; Liquid; Parallel plate capacitor

Row | relative permittivity at zero frequency | SMILES
8 | 17.66 ± 0.02 | O=C1CCC1 [cyclobutanone]
9 | 15.22 ± 0.02 | O=C1CCCCCC1 [cycloheptanone]
10 | 15.46 ± 0.04 | O=C1CCCC1 [cyclopentanone]
11 | 19.34 ± 0.02 | O=C1CCCCC1 [cyclohexanone]

Same assay, conditions: 250.65 K; 101.33 kPa; Liquid; Parallel plate capacitor

Row | relative permittivity at zero frequency | SMILES
12 | 17.51 ± 0.02 | O=C1CCC1 [cyclobutanone]
13 | 15.09 ± 0.02 | O=C1CCCCCC1 [cycloheptanone]
14 | 15.36 ± 0.04 | O=C1CCCC1 [cyclopentanone]
15 | 19.13 ± 0.02 | O=C1CCCCC1 [cyclohexanone]

Same assay, conditions: 253.15 K; 101.33 kPa; Liquid; Parallel plate capacitor

Row | relative permittivity at zero frequency | SMILES
16 | 17.37 ± 0.02 | O=C1CCC1 [cyclobutanone]
17 | 14.97 ± 0.02 | O=C1CCCCCC1 [cycloheptanone]
18 | 15.26 ± 0.04 | O=C1CCCC1 [cyclopentanone]
19 | 18.93 ± 0.02 | O=C1CCCCC1 [cyclohexanone]

Same assay, conditions: 255.65 K; 101.33 kPa; Liquid; Parallel plate capacitor

Row | relative permittivity at zero frequency | SMILES
20 | 17.22 ± 0.02 | O=C1CCC1 [cyclobutanone]
21 | 14.85 ± 0.02 | O=C1CCCCCC1 [cycloheptanone]
22 | 15.15 ± 0.04 | O=C1CCCC1 [cyclopentanone]
23 | 18.73 ± 0.02 | O=C1CCCCC1 [cyclohexanone]

Same assay, conditions: 258.15 K; 101.33 kPa; Liquid; Parallel plate capacitor

Row | relative permittivity at zero frequency | SMILES
24 | 17.07 ± 0.02 | O=C1CCC1 [cyclobutanone]
25 | 14.72 ± 0.02 | O=C1CCCCCC1 [cycloheptanone]
26 | 15.05 ± 0.04 | O=C1CCCC1 [cyclopentanone]
27 | 18.54 ± 0.02 | O=C1CCCCC1 [cyclohexanone]

Same assay, conditions: 260.65 K; 101.33 kPa; Liquid; Parallel plate capacitor

Row | relative permittivity at zero frequency | SMILES
28 | 16.93 ± 0.02 | O=C1CCC1 [cyclobutanone]
29 | 14.57 ± 0.02 | O=C1CCCCCC1 [cycloheptanone]
30 | 14.95 ± 0.04 | O=C1CCCC1 [cyclopentanone]
31 | 18.34 ± 0.02 | O=C1CCCCC1 [cyclohexanone]

Same assay, conditions: 263.15 K; 101.33 kPa; Liquid; Parallel plate capacitor

Row | relative permittivity at zero frequency | SMILES
32 | 16.79 ± 0.02 | O=C1CCC1 [cyclobutanone]
33 | 14.47 ± 0.02 | O=C1CCCCCC1 [cycloheptanone]
34 | 14.85 ± 0.04 | O=C1CCCC1 [cyclopentanone]
35 | 18.15 ± 0.02 | O=C1CCCCC1 [cyclohexanone]

Same assay, conditions: 265.65 K; 101.33 kPa; Liquid; Parallel plate capacitor

Row | relative permittivity at zero frequency | SMILES
36 | 16.65 ± 0.02 | O=C1CCC1 [cyclobutanone]
37 | 14.36 ± 0.02 | O=C1CCCCCC1 [cycloheptanone]
38 | 14.75 ± 0.04 | O=C1CCCC1 [cyclopentanone]
39 | 17.96 ± 0.02 | O=C1CCCCC1 [cyclohexanone]

Same assay, conditions: 268.15 K; 101.33 kPa; Liquid; Parallel plate capacitor

Row | relative permittivity at zero frequency | SMILES
40 | 16.51 ± 0.02 | O=C1CCC1 [cyclobutanone]
41 | 14.25 ± 0.02 | O=C1CCCCCC1 [cycloheptanone]
42 | 14.65 ± 0.04 | O=C1CCCC1 [cyclopentanone]
43 | 17.78 ± 0.02 | O=C1CCCCC1 [cyclohexanone]

Same assay, conditions: 270.65 K; 101.33 kPa; Liquid; Parallel plate capacitor

Row | relative permittivity at zero frequency | SMILES
44 | 16.37 ± 0.02 | O=C1CCC1 [cyclobutanone]
45 | 14.14 ± 0.02 | O=C1CCCCCC1 [cycloheptanone]
46 | 14.55 ± 0.04 | O=C1CCCC1 [cyclopentanone]
47 | 17.6 ± 0.02 | O=C1CCCCC1 [cyclohexanone]

Same assay, conditions: 273.15 K; 101.33 kPa; Liquid; Parallel plate capacitor

Row | relative permittivity at zero frequency | SMILES
48 | 16.24 ± 0.02 | O=C1CCC1 [cyclobutanone]
49 | 14.03 ± 0.02 | O=C1CCCCCC1 [cycloheptanone]
50 | 14.45 ± 0.04 | O=C1CCCC1 [cyclopentanone]
51 | 17.42 ± 0.02 | O=C1CCCCC1 [cyclohexanone]

Same assay, conditions: 275.65 K; 101.33 kPa; Liquid; Parallel plate capacitor

Row | relative permittivity at zero frequency | SMILES
52 | 16.11 ± 0.02 | O=C1CCC1 [cyclobutanone]
53 | 13.91 ± 0.02 | O=C1CCCCCC1 [cycloheptanone]
54 | 14.35 ± 0.04 | O=C1CCCC1 [cyclopentanone]
55 | 17.24 ± 0.02 | O=C1CCCCC1 [cyclohexanone]

Same assay, conditions: 278.15 K; 101.33 kPa; Liquid; Parallel plate capacitor

Row | relative permittivity at zero frequency | SMILES
56 | 15.98 ± 0.02 | O=C1CCC1 [cyclobutanone]
57 | 13.8 ± 0.02 | O=C1CCCCCC1 [cycloheptanone]
58 | 14.25 ± 0.04 | O=C1CCCC1 [cyclopentanone]
59 | 17.07 ± 0.02 | O=C1CCCCC1 [cyclohexanone]

Same assay, conditions: 280.65 K; 101.33 kPa; Liquid; Parallel plate capacitor

Row | relative permittivity at zero frequency | SMILES
60 | 15.85 ± 0.02 | O=C1CCC1 [cyclobutanone]
61 | 13.69 ± 0.02 | O=C1CCCCCC1 [cycloheptanone]
62 | 14.15 ± 0.04 | O=C1CCCC1 [cyclopentanone]
63 | 16.9 ± 0.02 | O=C1CCCCC1 [cyclohexanone]

Same assay, conditions: 283.15 K; 101.33 kPa; Liquid; Parallel plate capacitor

Row | relative permittivity at zero frequency | SMILES
64 | 15.72 ± 0.02 | O=C1CCC1 [cyclobutanone]
65 | 13.58 ± 0.02 | O=C1CCCCCC1 [cycloheptanone]
66 | 14.06 ± 0.04 | O=C1CCCC1 [cyclopentanone]
